According to ChEMBL document CHEMBL1153831, “Azithromycin blocks quorum sensing and alginate polymer formation and increases the sensitivity to serum and stationary-growth-phase killing of Pseudomonas aeruginosa and attenuates chronic P. aeruginosa lung infection in Cftr(-/-) mice” (Antimicrob Agents Chemother, 2007):
Calls of active or inactive are those of the source. The rule behind the calls is not given here.

Assays:
Pseudomonas aeruginosa [1] = assay: Inhibition of alginate synthesis in Pseudomonas aeruginosa NH57388A mucoid isolate supernatant assessed as uronic acid fraction out of the dialysis bag of total amount of uronic acids after exhaustive dialysis at 12 ug/mL after 24 hrs by carbazole-borate assay; type: functional; design: scale not given: the % may be the effect or the level left
Pseudomonas aeruginosa [2] = assay: Antimicrobial activity against Pseudomonas aeruginosa NH57388C nonmucoid isolate expressing quorum sensing lasI assessed as reduction of viable count at 12 ug/mL in absence of 2.5% human normal serum; type: functional
Pseudomonas aeruginosa [3] = assay: Inhibition of alginate synthesis in Pseudomonas aeruginosa NH57388A mucoid isolate supernatant assessed as uronic acid concentration in dialysis bag after exhaustive dialysis at 12 ug/mL after 24 hrs by carbazole-borate assay; type: functional
[4] = Elimination half life in Cftr-tml-Unc-TgN(FABPCFTR) cystic fibrosis mouse model at 500 mg/kg, po; type: ADME, organism-based; design: dose 500 mg/kg, route oral; conditions: in vivo, read-out: beta t1/2 (converted)
Pseudomonas aeruginosa [5] = assay: Inhibition of quorum sensing-regulated pyocyanin production in Pseudomonas aeruginosa NH57388A mucoid isolate harboring GFP-fused […] lasB gene assessed as enzyme activity per cell at 8 ug/mL after 24 hrs relative to control; type: functional
Pseudomonas aeruginosa [6] = assay: (§1) Antimicrobial activity in Pseudomonas aeruginosa NH57388A mucoid isolate harboring GFP-fused avian sarcoma virus lasB gene infected in ftr-tml-Unc-TgN(FABPCFTR) cystic fibrosis mouse lung assessed as fibrous spongy-like material surrounding polymorphonuclear leukocytes at 500 mg/kg, po administered 24 hrs after infection daily once for 5 days measured after 7 days postinfection by histopathology; type: functional, organism-based; design: dose 500 mg/kg
Pseudomonas aeruginosa [7] = assay: Antimicrobial activity against Pseudomonas aeruginosa NH57388C nonmucoid isolate expressing quorum sensing lasI assessed as reduction of viable count at 12 ug/mL in presence of 2.5% human normal serum; type: functional
Pseudomonas aeruginosa [8] = assay: Inhibition of quorum sensing-regulated pyocyanin production in Pseudomonas aeruginosa NH57388A mucoid isolate harboring GFP-fused […] lasB gene assessed as enzyme activity per cell at 2 ug/mL after 24 hrs relative to control; type: functional
Pseudomonas aeruginosa [9] = assay: Antimicrobial activity against Pseudomonas aeruginosa NH57388A mucoid isolate assessed as reduction of viable count in stationary phase at 2 ug/mL after 8 hrs; type: functional
[10] = Drug level in Cftr-tml-Unc-TgN(FABPCFTR) cystic fibrosis mouse serum at 500 mg/kg, po after 2 hrs; type: ADME, organism-based; design: dose 500 mg/kg, route oral; conditions: read-out: Drug uptake
[11] = Drug level in Cftr-tml-Unc-TgN(FABPCFTR) cystic fibrosis mouse serum at 500 mg/kg, po after 4 hrs; type: ADME, organism-based; design: dose 500 mg/kg, route oral; conditions: read-out: Drug uptake
Pseudomonas aeruginosa [12] = assay: Increase in sensitivity of hydrogen peroxide to quorum sensing lasI-deficient isogenic Pseudomonas aeruginosa NH57388A mucoid isolate mutant assessed as increase in zone of inhibition at 12 ug/mL after 48 hrs relative to untreated bacterial control; type: functional; design: scale not given: the % may be the effect or the level left
Pseudomonas aeruginosa [13] = assay: Inhibition of quorum sensing-regulated elastase production in Pseudomonas aeruginosa NH57388A mucoid isolate harboring GFP-fused […] lasB gene assessed as enzyme activity per cell at 8 ug/mL after 24 hrs relative to control; type: functional
Pseudomonas aeruginosa [14] = assay: (§2) Antimicrobial activity in Pseudomonas aeruginosa NH57388A mucoid isolate harboring GFP-fused avian sarcoma virus lasB gene infected in ftr-tml-Unc-TgN(FABPCFTR) cystic fibrosis mouse assessed as frequency of lung abscesses at 500 mg/kg, po administered 24 hrs after infection daily once for 5 days measured after 7 days postinfection; type: functional
Pseudomonas aeruginosa [15] = assay: as §2, with “activity against” for “activity in”, “as mortality” for “as frequency of lung abscesses”, “hrs postinfection” for “hrs after infection”; type: functional
Pseudomonas aeruginosa [16] = assay: Inhibition of quorum sensing-regulated elastase production in Pseudomonas aeruginosa NH57388A mucoid isolate harboring GFP-fused […] lasB gene assessed as enzyme activity per cell at 2 ug/mL after 24 hrs relative to control; type: functional
Pseudomonas aeruginosa [17] = assay: Antimicrobial activity against quorum sensing lasI-deficient isogenic Pseudomonas aeruginosa NH57388D mucoid isolate assessed as reduction of viable count at 12 ug/mL in absence of 2.5% human normal serum; type: functional
Pseudomonas aeruginosa [18] = assay: Antimicrobial activity against Pseudomonas aeruginosa NH57388A mucoid isolate assessed as reduction of viable count in exponential phase at 256 ug/mL after 8 hrs; type: functional
Pseudomonas aeruginosa [19] = assay: Increase in sensitivity of hydrogen peroxide to Pseudomonas aeruginosa NH57388A mucoid isolate expressing quorum sensing lasI assessed as increase in zone of inhibition at 12 ug/mL after 48 hrs relative to untreated bacterial control; type: functional; design: scale not given: the % may be the effect or the level left
Pseudomonas aeruginosa [20] = assay: Antimicrobial activity against Pseudomonas aeruginosa NH57388A mucoid isolate assessed as reduction of viable count in exponential phase at 64 ug/mL after 8 hrs; type: functional
Pseudomonas aeruginosa [21] = assay: Inhibition of quorum sensing-regulated elastase production in Pseudomonas aeruginosa NH57388A mucoid isolate harboring GFP-fused […] lasB gene assessed as enzyme activity per cell at 4 ug/mL after 24 hrs relative to control; type: functional
Pseudomonas aeruginosa [22] = assay: Inhibition of quorum sensing-regulated chitinase production in Pseudomonas aeruginosa NH57388A mucoid isolate harboring GFP-fused […] lasB gene assessed as enzyme activity per cell at 4 ug/mL after 24 hrs relative to control; type: functional
Pseudomonas aeruginosa [23] = assay: Inhibition of quorum sensing-regulated chitinase production in Pseudomonas aeruginosa NH57388A mucoid isolate harboring GFP-fused […] lasB gene assessed as enzyme activity per cell at 8 ug/mL after 24 hrs relative to control; type: functional
[24] = Drug level in Cftr-tml-Unc-TgN(FABPCFTR) cystic fibrosis mouse serum at 500 mg/kg, po after 1 hr; type: ADME, organism-based; design: dose 500 mg/kg, route oral; conditions: read-out: Drug uptake
Pseudomonas aeruginosa [25] = assay: Inhibition of alginate synthesis in Pseudomonas aeruginosa NH57388A mucoid isolate supernatant assessed as uronic acid concentration in outside of dialysis bag after equilibrium dialysis at 12 ug/mL after 24 hrs by carbazole-borate assay; type: functional
Pseudomonas aeruginosa [26] = assay: Antimicrobial activity against Pseudomonas aeruginosa NH57388A mucoid isolate harboring GFP-fused […] lasB gene infected in ftr-tml-Unc-TgN(FABPCFTR) cystic fibrosis mouse lungs assessed as reduction in GFP signal at 250 mg/kg, iv administered 24 hrs after infection measured after 24 hrs; type: functional, organism-based; design: dose 250 mg/kg
Pseudomonas aeruginosa [27] = assay: Antimicrobial activity against quorum sensing lasI-deficient isogenic Pseudomonas aeruginosa NH57388E nonmucoid isolate assessed as reduction of viable count at 12 ug/mL in absence of 2.5% human normal serum; type: functional
Pseudomonas aeruginosa [28] = assay: Inhibition of quorum sensing-regulated chitinase production in Pseudomonas aeruginosa NH57388A mucoid isolate harboring GFP-fused […] lasB gene assessed as enzyme activity per cell at 2 ug/mL after 24 hrs relative to control; type: functional
Pseudomonas aeruginosa [29] = assay: as §2, with “mouse lung” for “mouse”, “scattered residues” for “frequency”, “alginate without bacteria” for “lung abscesses”, “postinfection by histopathology” for “postinfection”; type: functional, organism-based; design: dose 500 mg/kg
Pseudomonas aeruginosa [30] = assay: Inhibition of quorum sensing-regulated pyocyanin production in Pseudomonas aeruginosa NH57388A mucoid isolate harboring GFP-fused […] lasB gene assessed as enzyme activity per cell at 4 ug/mL after 24 hrs relative to control; type: functional
Pseudomonas aeruginosa [31] = assay: Inhibition of alginate synthesis in Pseudomonas aeruginosa NH57388A mucoid isolate supernatant assessed as uronic acid concentration in dialysis bag before exhaustive dialysis at 12 ug/mL after 24 hrs by carbazole-borate assay; type: functional
[32] = Elimination half life in human; type: ADME, organism-based; conditions: in vivo, read-out: beta t1/2 (converted)
Pseudomonas aeruginosa [33] = assay: Toxicity in Pseudomonas aeruginosa NH57388A mucoid isolate harboring GFP-fused […] lasB gene assessed as growth rate at 2 to 12 ug/mL after 14 hrs by molecular technology relative to control; type: organism-based
[34] = Drug level in Cftr-tml-Unc-TgN(FABPCFTR) cystic fibrosis mouse serum at 500 mg/kg, po after 0.5 hrs; type: ADME, organism-based; design: dose 500 mg/kg, route oral; conditions: read-out: Drug uptake
Pseudomonas aeruginosa [35] = assay: as §2, with “mouse lungs” for “mouse”, “median alginate content in lungs” for “frequency of lung abscesses”; type: functional
Pseudomonas aeruginosa [36] = assay: Inhibition of alginate synthesis in Pseudomonas aeruginosa NH57388A mucoid isolate supernatant assessed as uronic acid fraction out of the dialysis bag of total amount of uronic acids after equilibrium dialysis at 12 ug/mL after 24 hrs by carbazole-borate assay; type: functional; design: scale not given: the % may be the effect or the level left
Pseudomonas aeruginosa [37] = assay: Antimicrobial activity against Pseudomonas aeruginosa NH57388A mucoid isolate expressing quorum sensing lasI assessed as reduction of viable count at 12 ug/mL in absence of 2.5% human normal serum; type: functional
Pseudomonas aeruginosa [38] = assay: Inhibition of quorum sensing in Pseudomonas aeruginosa NH57388A mucoid isolate harboring GFP-fused […] lasB gene assessed as suppression of GFP expression after 14 hrs by molecular technology; type: functional, organism-based
Pseudomonas aeruginosa [39] = assay: Antimicrobial activity against Pseudomonas aeruginosa NH57388A mucoid isolate after overnight incubation by E-test; type: functional
Pseudomonas aeruginosa [40] = assay: Antimicrobial activity against quorum sensing lasI-deficient isogenic nonmucoid Pseudomonas aeruginosa NH57388E mutant assessed as reduction of viable count at 12 ug/mL in presence of 2.5% human normal serum; type: functional
Pseudomonas aeruginosa [41] = assay: Antimicrobial activity against Pseudomonas aeruginosa NH57388A mucoid isolate expressing quorum sensing lasI assessed as reduction of viable count at 12 ug/mL in presence of 2.5% human normal serum; type: functional
Pseudomonas aeruginosa [42] = assay: Inhibition of quorum sensing-regulated alginate production in Pseudomonas aeruginosa NH57388A mucoid isolate harboring GFP-fused […] lasB gene assessed as enzyme activity per cell at 8 ug/mL after 24 hrs relative to control; type: functional
Pseudomonas aeruginosa [43] = assay: Antimicrobial activity against Pseudomonas aeruginosa NH57388A mucoid isolate assessed as reduction of viable count in stationary phase at 16 ug/mL after 8 hrs; type: functional
Pseudomonas aeruginosa [44] = assay: as §1, with “debris-like granular” for “fibrous spongy-like”; type: functional, organism-based; design: dose 500 mg/kg
Mus musculus = organism: Mus musculus; assay: Elimination half life in healthy mouse; type: ADME, organism-based; conditions: in vivo
Pseudomonas aeruginosa [45] = assay: Inhibition of alginate synthesis in Pseudomonas aeruginosa NH57388A mucoid isolate supernatant assessed as uronic acid concentration in inside of dialysis bag after equilibrium dialysis at 12 ug/mL after 24 hrs by carbazole-borate assay; type: functional
Pseudomonas aeruginosa [46] = assay: Antimicrobial activity against quorum sensing lasI-deficient isogenic Pseudomonas aeruginosa NH57388D mucoid isolate assessed as reduction of viable count at 12 ug/mL in presence of 2.5% human normal serum; type: functional
Pseudomonas aeruginosa [47] = assay: Inhibition of quorum sensing-regulated alginate production in Pseudomonas aeruginosa NH57388A mucoid isolate harboring GFP-fused […] lasB gene assessed as enzyme activity per cell at 4 ug/mL after 24 hrs relative to control; type: functional
Pseudomonas aeruginosa [48] = assay: Inhibition of quorum sensing-regulated alginate production in Pseudomonas aeruginosa NH57388A mucoid isolate harboring GFP-fused […] lasB gene assessed as enzyme activity per cell at 2 ug/mL after 24 hrs relative to control; type: functional

Work on `CC[C@H]1OC(=O)[C@H](C)[C@@H](O[C@H]2C[C@@](C)(OC)[C@@H](O)[C@H](C)O2)[C@H](C)[C@@H](O[C@@H]2O[C@H](C)C[C@H](N(C)C)[C@H]2O)[C@](C)(O)C[C@@H](C)CN(C)[C@H](C)[C@@H](O)[C@]1(C)O` [AZITHROMYCIN] yielded an Activity (Pseudomonas aeruginosa [1]) of 67.4%, a CFU (Pseudomonas aeruginosa [2]) of 110 ×10⁵ /ml and an Activity (Pseudomonas aeruginosa [3]) of 103 µg/mL. For the same compound, the half-life [4] was 138 min, the inhibition at 8 µg/mL (Pseudomonas aeruginosa [5]) was 16% and the Activity (Pseudomonas aeruginosa [6]) was “Active”. The CFU (Pseudomonas aeruginosa [7]) was 0 mL, the inhibition at 2 µg/mL (Pseudomonas aeruginosa [8]) was 43% and the Activity (Pseudomonas aeruginosa [9]) was 88%. The concentration at 2 h [10] was 3100 ng/mL, the concentration at 4 h [11] was 1700 ng/mL and the Activity (Pseudomonas aeruginosa [12]) was 43%. The inhibition at 8 µg/mL (Pseudomonas aeruginosa [13]) was 51%, the Activity (Pseudomonas aeruginosa [14]) was 32% and the Activity (Pseudomonas aeruginosa [15]) was 24%. The inhibition at 2 µg/mL (Pseudomonas aeruginosa [16]) was 77%, the CFU (Pseudomonas aeruginosa [17]) was 55 ×10⁶ /ml and the Activity (Pseudomonas aeruginosa [18]) was 99%. It also gave an Activity (Pseudomonas aeruginosa [19]) of 31%, an Activity (Pseudomonas aeruginosa [20]) of 87% and an inhibition at 4 µg/mL (Pseudomonas aeruginosa [21]) of 45%. It also gave an inhibition at 4 µg/mL (Pseudomonas aeruginosa [22]) of 15%, an inhibition at 8 µg/mL (Pseudomonas aeruginosa [23]) of 10% and a concentration at 1 h [24] of 2900 ng/mL. The Activity (Pseudomonas aeruginosa [25]) was 143 µg/mL, the Activity (Pseudomonas aeruginosa [26]) was “Active” and the CFU (Pseudomonas aeruginosa [27]) was 3.8 ×10⁷ /ml. The inhibition at 2 µg/mL (Pseudomonas aeruginosa [28]) was 66%, the Activity (Pseudomonas aeruginosa [29]) was “Active” and the inhibition at 4 µg/mL (Pseudomonas aeruginosa [30]) was 32%. For the same compound, the Activity (Pseudomonas aeruginosa [31]) was 316 µg/mL, the half-life [32] was 2.83 days and the Activity (Pseudomonas aeruginosa [33]) was “Non-toxic”. The concentration at 0.5 h [34] was 2900 ng/mL, the Activity (Pseudomonas aeruginosa [35]) was 10 µg/mL and the Activity (Pseudomonas aeruginosa [36]) was 31.2%. The CFU (Pseudomonas aeruginosa [37]) was 31 ×10⁶ /ml, the Activity (Pseudomonas aeruginosa [38]) was “Dose-dependent effect” and the MIC (Pseudomonas aeruginosa [39]) was over 256 µg/mL. It also gave a CFU (Pseudomonas aeruginosa [40]) of 2 ×10³ /ml, a CFU (Pseudomonas aeruginosa [41]) of 2.5 ×10² /ml and an inhibition at 8 µg/mL (Pseudomonas aeruginosa [42]) of 52%. For the same compound, the Activity (Pseudomonas aeruginosa [43]) was 99%, the Activity (Pseudomonas aeruginosa [44]) was “Active” and the “beta t1/2” value (Mus musculus) was 44 min. It also gave an Activity (Pseudomonas aeruginosa [45]) of 316 µg/mL, a CFU (Pseudomonas aeruginosa [46]) of 8.6 ×10⁵ /ml and an inhibition at 4 µg/mL (Pseudomonas aeruginosa [47]) of 56%. It also gave an inhibition at 2 µg/mL (Pseudomonas aeruginosa [48]) of 63%.
